target: Hepatitis C virus serine protease, NS3/NS4A (Hepatitis C virus, UniProt A3EZI9+D2K2A8); assay: Inhibition of HCV genotype H 1a NS3/4A protease; format: protein-complex assay
Sequence (D2K2A8 whole entry): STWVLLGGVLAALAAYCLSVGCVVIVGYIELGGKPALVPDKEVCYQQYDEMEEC
Sequence (A3EZI9 whole entry): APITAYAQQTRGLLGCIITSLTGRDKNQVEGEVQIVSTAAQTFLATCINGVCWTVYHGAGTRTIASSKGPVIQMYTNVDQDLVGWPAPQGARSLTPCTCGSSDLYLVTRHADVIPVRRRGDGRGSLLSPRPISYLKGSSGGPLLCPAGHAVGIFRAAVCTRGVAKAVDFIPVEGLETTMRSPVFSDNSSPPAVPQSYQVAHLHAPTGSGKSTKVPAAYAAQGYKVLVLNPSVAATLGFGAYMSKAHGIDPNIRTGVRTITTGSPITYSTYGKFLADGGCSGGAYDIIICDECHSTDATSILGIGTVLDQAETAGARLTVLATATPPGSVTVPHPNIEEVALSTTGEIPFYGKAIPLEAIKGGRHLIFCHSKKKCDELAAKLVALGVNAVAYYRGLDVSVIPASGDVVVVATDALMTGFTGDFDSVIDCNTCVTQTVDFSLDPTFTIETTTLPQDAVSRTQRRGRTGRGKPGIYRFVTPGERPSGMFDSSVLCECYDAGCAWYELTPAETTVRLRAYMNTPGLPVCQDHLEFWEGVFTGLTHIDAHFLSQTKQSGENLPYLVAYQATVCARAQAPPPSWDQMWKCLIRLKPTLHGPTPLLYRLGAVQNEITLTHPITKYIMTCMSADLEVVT

| Ki [nM] | Compound |
| --- | --- |
| 140 | CC(C)(C)NC(=O)NC(C(=O)N1C[C@H]2[C@@H](C1C(=O)N[C@@H](CC1CCC1)C(=O)C(N)=O)C2(F)F)C(C)(C)C (stereo partly drawn) |
| 150 | CC(C)(C)OC(=O)NC(C(=O)N1C[C@H]2[C@@H](C1C(=O)N[C@@H](CC1CCCC1)C(=O)C(N)=O)C2(C)C)C1CCCCC1 (stereo partly drawn) |
| 15000 | CC(C)C[C@H](NC(=O)C(NC(=O)OC(C)(C)C)C(C)(C)C)C(=O)N[C@@H](CC1CCC1)C(=O)C(N)=O (stereo partly drawn) |
| 100 | CC(C)[C@H](NC(=O)NC(C)(C)C)C(=O)N1C[C@H]2[C@@H](C1C(=O)N[C@@H](CC1CC1)C(=O)C(N)=O)C2(C)C (stereo partly drawn) |
| 360 | CCCC[C@H](NC(=O)C1[C@@H]2[C@H](CN1C(=O)C(NC(=O)OC(C)(C)C)C(C)(C)C)C2(C)C)C(=O)C(N)=O (stereo partly drawn) |
| 220 | CCC[C@H](NC(=O)C1[C@@H]2[C@H](CN1C(=O)C(NC(=O)OC(C)(C)C)C(C)(C)C)C2(C)C)C(=O)C(N)=O (stereo partly drawn) |
| 50 | CC(C)(C)NC(=O)NC(C(=O)N1C[C@H]2[C@@H](C1C(=O)N[C@@H](CC1CC1(F)F)C(=O)C(N)=O)C2(C)C)C(C)(C)C (stereo partly drawn) |
| 800 | COC(=O)NC(C(=O)N1C[C@H]2[C@@H](C1C(=O)N[C@@H](CC1CC1)C(=O)C(N)=O)C2(C)C)C1CCCCC1 (stereo partly drawn) |
| 500 | CC(C)(C)NC(=O)NC(C(=O)N1C[C@@H]2OC(C)(C)C[C@@H]2C1C(=O)N[C@@H](CC1CCC1)C(=O)C(N)=O)C(C)(C)C (stereo partly drawn) |
| 400 | CC(C)C[C@H](NC(=O)C1[C@@H]2[C@H](CN1C(=O)C(NC(=O)OC(C)(C)C)C1CCCCC1)C2(C)C)C(=O)C(N)=O (stereo partly drawn) |
| 25 | CC(C)(C)OC(=O)NC(C(=O)N1C[C@H]2[C@@H](C1C(=O)N[C@@H](CC1CC1)C(=O)C(N)=O)C2(C)C)C1CCCCC1 (stereo partly drawn) |
| 230 | CCOC(=O)NC(C(=O)N1C[C@H]2[C@@H](C1C(=O)N[C@@H](CC1CC1)C(=O)C(N)=O)C2(C)C)C1CCCCC1 (stereo partly drawn) |
| 960 | CC(C)(C)NC(=O)NC(C(=O)N1C[C@@H]2OC(C)(C)[C@@H]2C1C(=O)N[C@@H](CC1CC1)C(=O)C(N)=O)C(C)(C)C (stereo partly drawn) |
| 54 | CCC[C@H](NC(=O)C1[C@@H]2[C@H](CN1C(=O)C(NC(=O)NC(C)(C)C)C1CCCCC1)C2(C)C)C(=O)C(N)=O (stereo partly drawn) |
| > 3300 | CC(C)(C)C[C@H](NC(=O)C1[C@@H]2[C@H](CN1C(=O)C(NC(=O)OC(C)(C)C)C(C)(C)C)C2(C)C)C(=O)C(N)=O (stereo partly drawn) |
| > 69000 | CC(C)(C)OC(=O)NC(C(=O)N1C[C@H]2[C@@H](C1C(=O)NC(C(=O)C(N)=O)C(C)(C)C)C2(C)C)C(C)(C)C (stereo partly drawn) |
| 740 | CCC(NC(=O)C1[C@@H]2[C@H](CN1C(=O)C(NC(=O)OC(C)(C)C)C1CCCCC1)C2(C)C)C(=O)C(N)=O (stereo partly drawn) |

| Ki [nM] | Compound |
| --- | --- |
| 100 | CCC[C@H](NC(=O)C1[C@@H]2[C@H](CN1C(=O)C(NC(=O)OC(C)(C)C)C1CCCCC1)C2(C)C)C(=O)C(N)=O (stereo partly drawn) |
| 480 | CC(C)C[C@H](NC(=O)C1[C@@H]2[C@H](CN1C(=O)C(NC(=O)OC(C)(C)C)C(C)(C)C)C2(C)C)C(=O)C(N)=O (stereo partly drawn) |
| 1600 | CC(C)(C)NC(=O)NC(C(=O)N1C[C@H]2[C@@H](C1C(=O)NC(C(=O)C(N)=O)C1CC1)C2(C)C)C(C)(C)C (stereo partly drawn) |
| 100 | CC(C)(C)NC(=O)NC(C(=O)N1C[C@H]2[C@@H](C1C(=O)NC(C(=O)C(N)=O)C1CCC1)C2(C)C)C(C)(C)C (stereo partly drawn) |
| 5000 | CC(C)(C)NC(=O)NC(C(=O)N1CCC[C@H]1C(=O)N[C@@H](CC1CCC1)C(=O)C(N)=O)C(C)(C)C (stereo partly drawn) |
| 14 | CC(C)(C)NC(=O)NC(C(=O)N1C[C@H]2[C@@H](C1C(=O)N[C@@H](CC1CCC1)C(=O)C(N)=O)C2(C)C)C(C)(C)C (stereo partly drawn) |
| 1800 | CC(C)(C)NC(=O)NC(C(=O)N1C[C@H]2[C@@H](C1C(=O)NC(C(=O)C(N)=O)C1CCCC1)C2(C)C)C(C)(C)C (stereo partly drawn) |
| > 12000 | CC(C)(C)OC(=O)NC(C(=O)N1C[C@H]2[C@@H](C1C(=O)N[C@@H](CC1CCCCC1)C(=O)C(N)=O)C2(C)C)C1CCCCC1 (stereo partly drawn) |
| 68 | CC(=O)N[C@H](C(=O)NC(C(=O)N1C[C@H]2[C@@H](C1C(=O)N[C@@H](CC1CC1)C(=O)C(N)=O)C2(C)C)C1CCCCC1)C(C)C (stereo partly drawn) |
| 38 | CC(=O)N[C@H](C(=O)NC(C(=O)N1C[C@H]2[C@@H](C1C(=O)N[C@@H](CC1CCC1)C(=O)C(N)=O)C2(C)C)C(C)(C)C)C(C)C (stereo partly drawn) |
| 19 | CC(C)(C)NC(=O)NC(C(=O)N1C[C@H]2[C@@H](C1C(=O)N[C@@H](CC1CCC1)C(=O)C(N)=O)C2(Cl)Cl)C(C)(C)C (stereo partly drawn) |
| 115 | CC(C)(C)NC(=O)NC(C(=O)N1C[C@H]2[C@@H](C1C(=O)N[C@@H](CC1CC(F)(F)C1)C(=O)C(N)=O)C2(C)C)C(C)(C)C (stereo partly drawn) |
| 13 | CC(C)(C)NC(=O)NC(C(=O)N1C[C@H]2[C@@H](C1C(=O)N[C@@H](CC1CC1)C(=O)C(N)=O)C2(C)C)C(C)(C)C (stereo partly drawn) |
| 60 | CC(C)OC(=O)NC(C(=O)N1C[C@H]2[C@@H](C1C(=O)N[C@@H](CC1CC1)C(=O)C(N)=O)C2(C)C)C1CCCCC1 (stereo partly drawn) |
| 50 | CC(C)(C)NC(=O)NC(C(=O)N1C[C@H]2[C@@H](C1C(=O)N[C@@H](CC1CC1)C(=O)C(N)=O)C2(C)C)C1CCCCC1 (stereo partly drawn) |
| 25 | CC(C)(C)OC(=O)NC(C(=O)N1C[C@H]2[C@@H](C1C(=O)N[C@@H](CC1CCC1)C(=O)C(N)=O)C2(C)C)C1CCCCC1 (stereo partly drawn) |

Source: ChEMBL document CHEMBL1139867, “Discovery of the HCV NS3/4A protease inhibitor (1R,5S)-N-[3-amino-1-(cyclobutylmethyl)-2,3-dioxopropyl]-3- [2(S)-[[[(1,1-dimethylethyl)amino]carbonyl]amino]-3,3-dimethyl-1-oxobutyl]- 6,6-dimethyl-3-azabicyclo[3.1.0]hexan-2(S)-carboxamide (Sch 503034) II. Key steps in structure-based optimization” (J Med Chem, 2007)
